Experimental findings from patent publication US11452708B2, “Discovery of potent [alpha]-glucosidase inhibitors from Heterophragma adenophyllum” (KING ABDULAZIZ UNIVERSITY, priority 2021, dated 2022) are described below.

This test addresses α-glucosidase (E.C.3.2.1.20) (Saccharomyces cerevisiae, UniProt P53341). Briefly: α-glucosidase inhibitory activity (p-nitrophenyl-α-d-glucopyranoside substrate, absorbance at 400 nm). The class given is biochemical. The conditions noted are these: in vitro; for IC50: 0.1 M phosphate buffer, pH 6.8, 37° C., standard acarbose, unit inferred. The procedure: . The substrate (0.7 Mm, p-nitrophenyl-α-d-glucopyranoside) was then mixed in and the difference in absorbance at 400 nm was recorded using a spectrophotometer for 30 minutes. The tested extracts and compound 1 were substituted with DMSO-d6 (7.5%) in the control. The standard drug used in this experiment was acarbose. The percentage activity was calculated by using the following formula.

[1] abbreviates: read-out: IC50, α-glucosidase inhibition.

Several values for one entry are separate records, joined by “and”; a condition that tells them apart may be missing. Equal entries are not always repeated. Where two headings read alike, the source gives them in different places.

Sequence of α-glucosidase (E.C.3.2.1.20) (P53341 whole entry): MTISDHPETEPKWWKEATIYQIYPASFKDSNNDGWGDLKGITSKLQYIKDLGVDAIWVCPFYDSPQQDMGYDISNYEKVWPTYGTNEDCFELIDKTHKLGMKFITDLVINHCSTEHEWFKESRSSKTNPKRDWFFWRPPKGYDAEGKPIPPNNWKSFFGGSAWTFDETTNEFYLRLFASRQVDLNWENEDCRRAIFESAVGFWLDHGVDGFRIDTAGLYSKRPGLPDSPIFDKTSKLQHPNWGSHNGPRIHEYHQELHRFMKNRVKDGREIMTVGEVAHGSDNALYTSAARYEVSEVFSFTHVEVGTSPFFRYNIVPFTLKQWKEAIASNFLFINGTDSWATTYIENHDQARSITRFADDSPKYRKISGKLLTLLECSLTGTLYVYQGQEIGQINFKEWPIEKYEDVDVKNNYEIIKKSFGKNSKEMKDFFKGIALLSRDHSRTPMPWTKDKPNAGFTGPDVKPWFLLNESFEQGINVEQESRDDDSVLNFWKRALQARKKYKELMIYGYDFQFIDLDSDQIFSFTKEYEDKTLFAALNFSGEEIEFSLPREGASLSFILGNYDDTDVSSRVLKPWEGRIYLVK

As to `CC(C)=CCC1=C(O)C(=O)c2ccccc2C1=O` [Compound 1, lapachol], the IC50 under setting [1] is 33.1 ± 2.41 µM. `COC(=O)C1(O)c2ccccc2C(=O)C1(O)CC=C(C)C` (stereo not shown) [Compound 3, Methyl 1,2-dihydroxy-2-(3-methylbut-2-enyl)-3-oxo-2,3-dihydroxo-1H-indene-1-carboxylate]: the half-maximal inhibitory concentration (IC50) (IC50, α-glucosidase inhibition) is 78.3 µM and 117 µM. Take `CC1(C)CCC2=C(O1)C(=O)c1ccccc1C2=O` [Compound 4, α-lapachone]: the IC50 under setting [1] was 117 µM and 78.3 µM. On to peshawaraquinone [Compound 2], for which the “α-glucosidase inhibitory activity (in words)” value (comparison among the tested compounds 1-4) is reported as “least active”.

By IC50 is commonly meant the concentration needed to halve the response being measured.
